# Results: patent US20260306491A1, “EGFR INHIBITOR FOR TREATING CANCERS COMPRISING ATYPICAL EGFR MUTATIONS” (ORIC Pharmaceuticals, Inc., priority 2023, published 2026)
# Tests used:
# Experiment in all cases: Cell viability (CellTiter-Glo)
# Format in all cases: cell-based
# [1] = tested on: Ba/F3 cells expressing EGFR_L858R/L718Q; details: Mus musculus, BaF3; 72 hours; average ± standard deviation; read-out: Absolute EC50 (50% growth)
# Experimental: (§1) A cell-based assay was used to evaluate the potency of Compound I on cells where the growth of the cells is either driven by EGFR wild type (WT) or cells comprising atypical mutant EGFR proteins. Cell viability was assessed following treatment with compounds and the assay developed with CellTiterGlo (CTG) reagent that measures ATP levels in cells. Compound I was dissolved in DMSO to generate a 10 mM stock solution. Dosing solutions were prepared by serial dilution in DMSO followed by dilution in complete media to result in a 0.4% DMSO in the assay. Ba/F3 cells expressing EGFR mutants EGFR_G719S, EGFR_G724S, EGFR_L718Q, EGFR_L718V, EGFR_L858R/1L718Q, EGFR_L858R/1L718V, EGFR_del19/L792K. EGFR_del19/G796S were generated following co-transfection of the EGFR mutant of interest with PhiC31 integrase. Two days following transfection, the media was changed and replaced with media lacking mIL3 with the addition of human EGF (hEGF) as well as puromycin to select stable cell lines. After the cell lines were established genomic DNA (gDNA) was extracted to confirm the sequence of the construct of interest. The culture Media for Ba/F3 EGFR mutants was RPMI+10% FBS+2 mM L-Glut±10 ng/ml hEGF+0.5 pig/ml puromycin. The following reagents were used to conduct the assays: RPMI1640 with phenol red (Corning, Cat #: 15-040-CV); Fetal Bovine Serum (FBS) (Omega Scientific, Cat #: FR-11); Human Epidermal Growth Factor (hEGF) (Cell Signaling Cat #8916SC); L-Glutamine (Corning, Cat #: 25-005-CI); Puromycin (Gibco, Cat #A11138-03); assay media was the same as culture medium; CellTiter-Glo® 2.0 Cell Viability Assay (Promega, Cat #G9243), DMSO (Sigma, Cat #: D2660). The following equipment was used to conduct the assays: Bravo Liquid Handler (Agilent #G5523BA); and the following supplies: 96-well Non-Sterile Polypropylene V Bottom Plates (Corning, Cat #: 3363); 384-well Sterile White with Flat Clear Bottom Plates (Greiner, 781098); and PerkinElmer TopSeal-A Plus plate seal (Cat. #6050185).
# (§2) Ba/F3 cell lines expressing either EGFR WT or mutant proteins were cultured in complete culture media at exponential growth phase for at least one week prior to assay. The different cell suspensions were counted and seeded into 384-well Sterile White Flat Clear Bottom Plates using a Bravo liquid handler, according to the appropriate cell number in 36 μl of media per well as follows: (a) Ba/F3-WT-EGFR: 2000 cells per well of a 384 well plate; (b) Ba/F3-G719S-EGFR: 2000 cells per well of a 384 well plate; (c) Ba/F3 G724S-EGFR: 1000 cells per well of a 384 well plate; (d) Ba/F3-L718Q-EGFR: 1000 cells per well of a 384 well plate; (e) Ba/F3-L718V-EGFR: 1000 cells per well of a 384 well plate; (f) Ba/F3-L858R/L718Q-EGFR: 1000 cells per well of a 384 well plate; (g) Ba/F3-L858R/L718V-EGFR: 1000 cells per well of a 384 well plate; (h) Ba/F3-del19/L792H-EGFR: 1000 cells per well of a 384 well plate; (i) Ba/F3-del19/G796S-EGFR: 1000 cells per well of a 384 well plate.
# (§3) Compound I was solubilized in DMSO as 10 mM stock solutions. These were stored as aliquots at −80° C. and used only once after thawing. The highest concentration of Compound I in the final assay plate was 500 nM. To prepare the compound dilutions intermediate dilution plates were prepared using the Bravo liquid handler by performing 12-point ⅓-fold serial dilutions in DMSO to a final concentration of 250-fold the concentration in the final assay plate, followed by a 1/25 dilution into complete assay media. Compound dilutions in media were added to cells (final assay plate) by dispensing 4 μL into cells plated the same day in 36 μl of medium of media. Plates were placed in a 37° C., 5% CO2 incubator. Following 72 hours of incubation, plates were left to equilibrate at room temperature before the addition of 1:1 ratio of CTG 2.0 using the Bravo liquid handler. […]
# [2] = tested on: Ba/F3 cells expressing EGFR_L858R/L718V; details: Mus musculus, BaF3; 72 hours; average ± standard deviation; read-out: Absolute EC50 (50% growth)
# Experimental: as §1, §2, §3
# [3] = tested on: Ba/F3 cells expressing EGFR_G724S; details: Mus musculus, BaF3; 72 hours; average ± standard deviation; read-out: Absolute EC50 (50% growth)
# Experimental: as §1, §2, §3
# [4] = tested on: Ba/F3 cells expressing EGFR WT; details: Mus musculus, BaF3; 72 hours; average ± standard deviation; read-out: Absolute EC50 (50% growth)
# Experimental: as §1, §2, §3
# [5] = tested on: Ba/F3 cells expressing EGFR_L718Q; details: Mus musculus, BaF3; 72 hours; average ± standard deviation; read-out: Absolute EC50 (50% growth)
# Experimental: as §1, §2, §3
# [6] = tested on: Ba/F3 cells expressing EGFR_L718V; details: Mus musculus, BaF3; 72 hours; average ± standard deviation; read-out: Absolute EC50 (50% growth)
# Experimental: as §1, §2, §3
# [7] = tested on: Ba/F3 cells expressing EGFR_G719S; details: Mus musculus, BaF3; 72 hours; average ± standard deviation; read-out: Absolute EC50 (50% growth)
# Experimental: as §1, §2, §3
# [8] = tested on: Ba/F3 cells expressing EGFR_del19/G796S; details: Mus musculus, BaF3; 72 hours; average ± standard deviation; read-out: Absolute EC50 (50% growth)
# Experimental: as §1, §2, §3
# [9] = tested on: Ba/F3 cells expressing EGFR_del19/L792H; details: Mus musculus, BaF3, 72 h, read-out: Absolute EC50 (50% growth)
# Experimental: as §1, §2, §3
compound,measurement,setting,value
"C=CC(=O)Nc1cc(Nc2cc(N3OCC[C@@H]3c3cc(F)cc(F)c3)ncn2)c(OC)cc1N1CCC(N2CCN(C3CC3)CC2)CC1 [Compound I, N-[2-[4-(4-cyclopropyl-1-piperazinyl)-1-piperidinyl]-5-[[6-[(3R)-3-(3,5-difluorophenyl)-2-isoxazolidinyl]-4-pyrimidinyl]amino]-4-methoxyphenyl]-2-propenamide]",EC50,[1],0.8 ± 0.5 nM
same,EC50,[2],0.2 ± 0.2 nM
same,EC50,[3],1.4 ± 0.9 nM
same,EC50,[4],6.6 ± 4.3 nM
same,EC50,[5],27.1 ± 6.4 nM
same,EC50,[6],0.9 ± 0.8 nM
same,EC50,[7],0.7 ± 0.1 nM
same,EC50,[8],1.1 ± 0.7 nM
same,EC50,[9],2.5 ± 1.8 nM
